Data taken from ChEMBL document CHEMBL1201862, “PubChem BioAssay data set” (2004).
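1) Cells in 96-well plates. 2) Compound, 48 h, 5 concentrations. 3) Linear interpolation between surrounding doses. 4) Unreached endpoint = highest concentration. GI50 = concentration required for 50% inhibition of growth.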 The source made the active and inactive calls. Cut-off read from the data, not from the text of the source: active = GI50 up to about 1.1 µM and inactive = higher.

What was measured:
Test in all cases: NCI anticancer screen, dose series, 48 h
MCF7 = tested on: MCF7
HCT-15 = tested on: HCT-15
IGROV-1 = tested on: IGROV-1
MOLT-4 = tested on: MOLT-4
DU-145 = tested on: DU-145
SF-295 = tested on: SF-295
SK-MEL-2 = tested on: SK-MEL-2
T47D = tested on: T47D
MDA-MB-435 = tested on: MDA-MB-435
COLO 205 = tested on: COLO 205
SF-268 = tested on: SF-268
M14 = tested on: M14
K562 = tested on: K562
UACC-257 = tested on: UACC-257
SNB-75 = tested on: SNB-75
SK-MEL-28 = tested on: SK-MEL-28
U-251 = tested on: U-251
HCC 2998 = tested on: HCC 2998
SNB-19 = tested on: SNB-19
HOP-92 = tested on: HOP-92

SMILES	GI50 (MCF7)	GI50 (HCT-15)	GI50 (IGROV-1)	GI50 (MOLT-4)	GI50 (DU-145)	GI50 (SF-295)	GI50 (SK-MEL-2)	GI50 (T47D)	GI50 (MDA-MB-435)	GI50 (COLO 205)	GI50 (SF-268)	GI50 (M14)	GI50 (K562)	GI50 (UACC-257)	GI50 (SNB-75)	GI50 (SK-MEL-28)	GI50 (U-251)	GI50 (HCC 2998)	GI50 (SNB-19)	GI50 (HOP-92)
O=C(CCn1ccnc1[N+](=O)[O-])NCCCn1ccnc1[N+](=O)[O-]	> 100 µM (inactive)	> 100 µM	> 100 µM (inactive)	> 100 µM (inactive)	> 100 µM (inactive)	> 100 µM (inactive)	> 100 µM (inactive)	> 100 µM (inactive)	> 100 µM (inactive)	> 100 µM (inactive)	> 100 µM (inactive)	> 100 µM (inactive)	> 100 µM (inactive)	> 100 µM (inactive)	> 100 µM (inactive)	> 100 µM (inactive)	> 100 µM (inactive)	–	–	–
CC1(C)C2CC(O)C1CCC2=O (stereo not drawn)	> 100 µM (inactive)	> 100 µM	–	> 100 µM (inactive)	> 100 µM (inactive)	> 100 µM (inactive)	> 100 µM (inactive)	> 100 µM (inactive)	> 100 µM (inactive)	> 100 µM (inactive)	> 100 µM (inactive)	> 100 µM (inactive)	> 100 µM (inactive)	> 100 µM (inactive)	> 100 µM (inactive)	> 100 µM (inactive)	> 100 µM (inactive)	> 100 µM (inactive)	> 100 µM (inactive)	–
CC1(C)O[C@H]([C@H](O)c2nnc3ccc(Cl)nn23)[C@@H]([C@H]2COC(C)(C)O2)O1	> 100 µM (inactive)	> 100 µM	> 100 µM (inactive)	> 100 µM (inactive)	> 100 µM (inactive)	> 100 µM (inactive)	> 100 µM (inactive)	> 100 µM (inactive)	> 100 µM (inactive)	> 100 µM (inactive)	> 100 µM (inactive)	> 100 µM (inactive)	–	> 100 µM (inactive)	–	> 100 µM (inactive)	> 100 µM (inactive)	> 100 µM (inactive)	> 100 µM (inactive)	–
CCCC(=O)Nc1cc(/C=C/C(=O)N2CC(CCl)c3ccc([N+](=O)[O-])cc32)n(C)c1 (stereo not drawn)	68.7 µM (inactive)	> 100 µM	65 µM (inactive)	–	> 100 µM (inactive)	44.1 µM (inactive)	> 100 µM (inactive)	70 µM (inactive)	> 100 µM (inactive)	> 100 µM (inactive)	43.7 µM (inactive)	> 100 µM (inactive)	> 100 µM (inactive)	> 100 µM (inactive)	> 100 µM (inactive)	> 100 µM (inactive)	> 100 µM (inactive)	57.7 µM (inactive)	> 100 µM (inactive)	–
CC1=CC[C@@H]2[C@@H](CC[C@@]2(C)O)C(C)(C)[C@H]1CC[C@@H]1[C@@]2(C)CCC(=O)C(C)(C)O[C@@H]2CC[C@]1(C)O	37.3 µM (inactive)	14.9 µM	28.9 µM (inactive)	20.7 µM (inactive)	42.9 µM (inactive)	0.762 µM (active)	36.7 µM (inactive)	43.5 µM (inactive)	30.7 µM (inactive)	25.6 µM (inactive)	29.9 µM (inactive)	25.3 µM (inactive)	–	30.3 µM (inactive)	65.6 µM (inactive)	31.2 µM (inactive)	31.9 µM (inactive)	18.7 µM (inactive)	26.9 µM (inactive)	–
N=c1oc2c(Cl)cc(Cl)cc2cc1C(=O)Nc1ccccn1	29.2 µM (inactive)	34.8 µM	–	8.24 µM (inactive)	72.4 µM (inactive)	54.7 µM (inactive)	42.7 µM (inactive)	74.8 µM (inactive)	45.6 µM (inactive)	> 100 µM (inactive)	33 µM (inactive)	33.7 µM (inactive)	71 µM (inactive)	> 100 µM (inactive)	14.3 µM (inactive)	> 100 µM (inactive)	37.2 µM (inactive)	81.5 µM (inactive)	34.7 µM (inactive)	–
Cc1cc(NCCCCCCCNc2cc(C)nc3cc([N+](=O)[O-])ccc23)c2ccc([N+](=O)[O-])cc2n1	–	2.55 µM	9.44 µM (inactive)	1.9 µM (inactive)	3.08 µM (inactive)	5.9 µM (inactive)	24.7 µM (inactive)	3.52 µM (inactive)	11.7 µM (inactive)	9.23 µM (inactive)	2.4 µM (inactive)	10.7 µM (inactive)	1.28 µM (inactive)	15.1 µM (inactive)	11.2 µM (inactive)	4.34 µM (inactive)	4.28 µM (inactive)	11.1 µM (inactive)	10.3 µM (inactive)	16.5 µM (inactive)
CNc1nc(SC)nc2c1c(N)nn2C	–	> 100 µM	78 µM (inactive)	> 100 µM (inactive)	> 100 µM (inactive)	> 100 µM (inactive)	> 100 µM (inactive)	> 100 µM (inactive)	> 100 µM (inactive)	> 100 µM (inactive)	> 100 µM (inactive)	> 100 µM (inactive)	> 100 µM (inactive)	> 100 µM (inactive)	95.7 µM (inactive)	> 100 µM (inactive)	> 100 µM (inactive)	> 100 µM (inactive)	> 100 µM (inactive)	> 100 µM (inactive)
C#CCOC(=O)C=[N+]=[N-]	> 10 µM (inactive)	> 10 µM	> 10 µM (inactive)	> 10 µM (inactive)	> 10 µM (inactive)	> 10 µM (inactive)	> 10 µM (inactive)	> 10 µM (inactive)	> 10 µM (inactive)	–	> 10 µM (inactive)	> 10 µM (inactive)	> 10 µM (inactive)	> 10 µM (inactive)	–	> 10 µM (inactive)	> 10 µM (inactive)	–	> 10 µM (inactive)	> 10 µM (inactive)
Fc1ccccc1-c1nn2c(C34CC5CC(CC(C5)C3)C4)nnc2s1	–	> 100 µM	> 100 µM (inactive)	> 100 µM (inactive)	> 100 µM (inactive)	> 100 µM (inactive)	> 100 µM (inactive)	> 100 µM (inactive)	> 100 µM (inactive)	> 100 µM (inactive)	> 100 µM (inactive)	> 100 µM (inactive)	> 100 µM (inactive)	> 100 µM (inactive)	> 100 µM (inactive)	> 100 µM (inactive)	> 100 µM (inactive)	> 100 µM (inactive)	> 100 µM (inactive)	> 100 µM (inactive)
Cc1sc2c(c1C)/C(=N\O)c1cccn1-2	39.1 µM (inactive)	81.8 µM	24.3 µM (inactive)	17.3 µM (inactive)	61 µM (inactive)	54.7 µM (inactive)	45.2 µM (inactive)	25.1 µM (inactive)	54 µM (inactive)	> 100 µM (inactive)	34 µM (inactive)	64 µM (inactive)	–	93.5 µM (inactive)	16.2 µM (inactive)	93.3 µM (inactive)	26.7 µM (inactive)	37 µM (inactive)	23.3 µM (inactive)	–
